Test results taken from publication PMC10620772, “Design, synthesis, and biological evaluation of new pyrimidine-5-carbonitrile derivatives as novel anti-cancer, dual EGFR^WT/COX-2 inhibitors with docking studies” (RSC Advances, 2023).

Key:
SK-OV-3 = experiment: NCI60 antitumor screening; format: cell-based, human; settings: Homo sapiens; 10 μM single dose; SK-OV-3 (ovarian cancer); read-out: growth inhibition percent (GI%)
SF-295 = experiment: NCI60 antitumor screening; format: cell-based, human; settings: Homo sapiens; 10 μM single dose; SF-295 (CNS cancer); read-out: growth inhibition percent (GI%)
BT-549 = experiment: NCI60 antitumor screening; format: cell-based, human; settings: Homo sapiens; 10 μM single dose; BT-549 (breast cancer); read-out: growth inhibition percent (GI%)
NCI-H460 = experiment: NCI60 antitumor screening; format: cell-based, human; settings: Homo sapiens; 10 μM single dose; NCI-H460 (non-small cell lung cancer); read-out: growth inhibition percent (GI%)
SNB-19 = experiment: NCI60 antitumor screening; format: cell-based, human; settings: Homo sapiens; 10 μM single dose; SNB-19 (CNS cancer); read-out: growth inhibition percent (GI%)
SK-MEL-2 = experiment: NCI60 antitumor screening; format: cell-based, human; settings: Homo sapiens; 10 μM single dose; SK-MEL-2 (melanoma); read-out: growth inhibition percent (GI%)
SNB-75 = experiment: NCI60 antitumor screening; format: cell-based, human; settings: Homo sapiens; 10 μM single dose; SNB-75 (CNS cancer); read-out: growth inhibition percent (GI%)
ACHN = experiment: NCI60 antitumor screening; format: cell-based, human; settings: Homo sapiens; 10 μM single dose; ACHN (renal cancer); read-out: growth inhibition percent (GI%)
EKVX = experiment: NCI60 antitumor screening; format: cell-based, human; settings: Homo sapiens; 10 μM single dose; EKVX (non-small cell lung cancer); read-out: growth inhibition percent (GI%)
NCI/ADR-RES = experiment: NCI60 antitumor screening; format: cell-based, human; settings: Homo sapiens; 10 μM single dose; NCI/ADR-RES (ovarian cancer); read-out: growth inhibition percent (GI%)
SF-268 = experiment: NCI60 antitumor screening; format: cell-based, human; settings: Homo sapiens; 10 μM single dose; SF-268 (CNS cancer); read-out: growth inhibition percent (GI%)
MOLT-4 = experiment: NCI60 antitumor screening; format: cell-based, human; settings: Homo sapiens; 10 μM single dose; MOLT-4 (leukaemia); read-out: growth inhibition percent (GI%)
COLO 205 = experiment: NCI60 antitumor screening; format: cell-based, human; settings: Homo sapiens; 10 μM single dose; COLO 205 (colon cancer); read-out: growth inhibition percent (GI%)
OVCAR-4 = experiment: NCI60 antitumor screening; format: cell-based, human; settings: Homo sapiens; 10 μM single dose; OVCAR-4 (ovarian cancer); read-out: growth inhibition percent (GI%)
KM12 = experiment: NCI60 antitumor screening; format: cell-based, human; settings: Homo sapiens; 10 μM single dose; KM12 (colon cancer); read-out: growth inhibition percent (GI%)
OVCAR-5 = experiment: NCI60 antitumor screening; format: cell-based, human; settings: Homo sapiens; 10 μM single dose; OVCAR-5 (ovarian cancer); read-out: growth inhibition percent (GI%)
MCF7 = experiment: NCI60 antitumor screening; format: cell-based, human; settings: Homo sapiens; 10 μM single dose; MCF7 (breast cancer); read-out: growth inhibition percent (GI%)
HS 578T = experiment: NCI60 antitumor screening; format: cell-based, human; settings: Homo sapiens; 10 μM single dose; HS 578T (breast cancer); read-out: growth inhibition percent (GI%)
U251 = experiment: NCI60 antitumor screening; format: cell-based, human; settings: Homo sapiens, U-251; 10 μM single dose; U251 (CNS cancer); read-out: growth inhibition percent (GI%)
NCI60 cell lines panel = experiment: NCI60 antitumor screening, full panel; format: cell-based, human; settings: Homo sapiens; 10 μM single dose; mean over NCI60 cell lines; read-out: Mean growth inhibition percent (GI%)
Outline: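 Percent growth inhibition (GI%) was recorded for each of the NCI60 lines, spanning leukaemia, lung, colon, CNS, melanoma, ovarian, renal, prostate and breast cancers, after exposure to compounds at one concentration, 10 μM.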

HCC-2998 = experiment: NCI60 antitumor screening; format: cell-based, human; settings: Homo sapiens; 10 μM single dose; HCC-2998 (colon cancer); read-out: growth inhibition percent (GI%)
MDA-MB-231/ATCC = experiment: NCI60 antitumor screening; format: cell-based, human; settings: Homo sapiens; 10 μM single dose; MDA-MB-231/ATCC (breast cancer); read-out: growth inhibition percent (GI%)
SR = experiment: NCI60 antitumor screening; format: cell-based, human; settings: Homo sapiens; 10 μM single dose; SR (leukaemia); read-out: growth inhibition percent (GI%)

Row | Compound | inhibition at 10 µM (SK-OV-3) [%] | inhibition at 10 µM (SF-295) [%] | inhibition at 10 µM (BT-549) [%] | inhibition at 10 µM (NCI-H460) [%] | inhibition at 10 µM (SNB-19) [%] | inhibition at 10 µM (SK-MEL-2) [%] | inhibition at 10 µM (SNB-75) [%] | inhibition at 10 µM (ACHN) [%] | inhibition at 10 µM (EKVX) [%] | inhibition at 10 µM (NCI/ADR-RES) [%] | inhibition at 10 µM (SF-268) [%] | inhibition at 10 µM (MOLT-4) [%] | inhibition at 10 µM (COLO 205) [%] | inhibition at 10 µM (OVCAR-4) [%] | inhibition at 10 µM (KM12) [%] | inhibition at 10 µM (OVCAR-5) [%] | inhibition at 10 µM (MCF7) [%] | inhibition at 10 µM (HS 578T) [%] | inhibition at 10 µM (U251) [%] | melting point [°C] | also measured
1 | N#Cc1c(-c2ccc(F)cc2)nc(SCc2ccc([N+](=O)[O-])cc2)nc1N1CCN(c2ccccc2)CC1 [4o, 4-(4-Fluorophenyl)-2-((4-nitrobenzyl)thio)-6-(4-phenylpiperazin-1-yl)pyrimidine-5-carbonitrile] | < 10 | < 10 | < 10 | < 10 | < 10 | < 10 | 12.4 | < 10 | 13.9 | < 10 | < 10 | < 10 | < 10 | 12.3 | < 10 | < 10 | 14.8 | < 10 | < 10 | 165 to 167 | inhibition at 10 µM (NCI60 cell lines panel): < 10%; inhibition at 10 µM (HCC-2998): < 10%
2 | N#Cc1c(-c2ccc(F)cc2)nc(SCc2ccccc2)nc1N1CCN(c2ccccc2)CC1 [4m, 2-(Benzylthio)-4-(4-fluorophenyl)-6-(4-phenylpiperazin-1-yl) pyrimidine-5-carbonitrile] | < 10 | < 10 | < 10 | < 10 | < 10 | < 10 | < 10 | < 10 | < 10 | < 10 | < 10 | < 10 | < 10 | < 10 | < 10 | < 10 | 16.1 | < 10 | < 10 | 165 to 167 | inhibition at 10 µM (MDA-MB-231/ATCC): < 10%; inhibition at 10 µM (SR): < 10%; inhibition at 10 µM (NCI60 cell lines panel): < 10%; inhibition at 10 µM (HCC-2998): < 10%
